According to patent US20250040545A1, “USE OF SYNERGISTIC COMPOSITIONS BASED ON ZOXAMIDE AND CYFLUFENAMID AS FUNGICIDES IN THE AGRONOMIC FIELD” (Gowan Crop Protection Limited, priority 2023, published 2025):
Where “and” joins values, the source holds several entries; their conditions need not be identical. Equal entries are not always repeated.

What was measured:
Format in all cases: cell-based
Details in all cases: single active ingredient
Venturia inaequalis = assay: In vitro antifungal synergy assay, growth inhibition in 96-well plates (absorbance), Venturia inaequalis
Experimental: (§1) Compositions consisting of the active ingredients Zoxamide (A) and Cyflufenamid (B) in different weight ratios were tested to evaluate their in vitro synergistic antifungal activity against the following phytopathogenic fungi: Botrytis cinerea, Sclerotinia minor and Venturia inaequalis by comparing them with the single active ingredients (A) and (B).
(§2) The strains in pure culture are kept and stored at 4° C. in a refrigerator on potato dextrose agar (PDA) nutrient substrates. The fungal inoculum was prepared (which, depending on the species of the pathogen, could be a suspension of conidia or a mycelial homogenate) for carrying out the synergy assays.
(§3) For the strains not easily sporulating in vitro, i.e. Sclerotinia minor and Venturia inaequalis, six to eight pieces of mycelium, taken from actively growing cultures, are transferred into a grinding egg containing 6 ml of double-concentration potato dextrose broth (PDB). and some metal balls. The suspension is homogenized with a Pulverisette 23 mini-mill (Fritsch GmbH).
(§4) In the compositions tested, the weight ratios of Zoxamide (A) with respect to Cyflufenamid (B) range from 500:1 to 1:100. For both molecules tested, a stock solution in dimethyl sulfoxide (DMSO) at 160,000 mg/l was prepared which was then serially diluted in sterile demineralized water to obtain the solutions to be tested at concentrations double with respect to the final doses. More specifically, the compositions of the two fungicide molecules (A) and (B) were tested following a checkerboard matrix in order to have, in this way, all possible combinations of the two fungicides within the weight ratios described above.
(§5) Synergy assays were performed in 96-well plates: 50 μl of inoculum were mixed with 50 μl of solution of the compositions consisting of the two active molecules (A) and (B) in each well using the Eppendorf Multipette® System E3 serial dispenser.
(§6) Three wells were used as replicates for each concentration/active ingredient composition.
(§7) All pathogen strains were grown in untreated control wells containing 50 μl of fungal suspension and 50 μl of sterile demineralized water. The inoculated multi-well plates are incubated at 22° C. for 72 hours or 96 or 120 depending on the type of pathogen.
(§8) The sensitivity to the molecules was evaluated as growth inhibition of the fungus and measured in terms of absorbance immediately before and after the incubation period.
(§9) The absorbance was measured for each well using the Infinite® F50 Absorbance Reader (Tecan Group Ltd) spectrophotometer at 405 nm (for mycelial inoculums) and at 492 nm (for conidic inoculums).
(§10) For each strain, the percentage of growth inhibition (GIP) caused by each of the active-ingredient concentrations was calculated using the following formula: […]
(§11) wherein At72-120 and At0 are respectively the absorbances of the treated well and of the untreated control measured at the end and at the beginning of the incubation period. GIP data were used for calculating the potential synergistic effect of the compositions tested using the formula proposed by Colby (1967):
(§12) [formula] • wherein: • GIPt=GIP expected of the active molecule A and B tested at dose p for molecule • A and dose q for molecule B: • GIPa=GIP expected from the molecule A tested at dose p; • GIPb=GIP expected from the molecule B tested at dose q.
(§13) The synergistic effect of the two molecules is indicated when the effectiveness of the mixed combination of A+B […], is higher than the expected effectiveness calculated with the Colby equation (GIPa+b/GIPt>1), as described in literature in Colby, S. R. (1967): “Calculating synergistic and antagonistic responses of herbicide combinations”, Weeds, 15 (1), pages 20-22.

Botrytis cinerea = assay: In vitro antifungal synergy assay, growth inhibition in 96-well plates (absorbance), Botrytis cinerea
Experimental: as §1, §2
For the in vitro sporulating strain, i.e. Botrytis cinerea, the conidic suspension was prepared starting from a culture grown on PDA after 4-5 days of incubation in a thermostat at 24° C. to stimulate its sporulation. The conidia were collected in 1 mL of double-concentration PDB and counted under a microscope with a counting chamber to obtain a final inoculum of 4×10^4 conidia/mL.
as §4, §5, §6, §7, §8, §9, §10, §11, §12, §13

Sclerotinia minor = assay: In vitro antifungal synergy assay, growth inhibition in 96-well plates (absorbance), Sclerotinia minor
Experimental: as §1, §2, §3, §4, §5, §6, §7, §8, §9, §10, §11, §12, §13

SMILES: O=C(Cc1ccccc1)N/C(=N\OCC1CC1)c1c(C(F)(F)F)ccc(F)c1F [Cyflufenamid]
- Effect A, Effect B (GIP) (Venturia inaequalis; dose 0.1 mg/l): 1.2%
- Effect A, Effect B (GIP) (Venturia inaequalis; dose 1 mg/l): 5.5%
- Effect A, Effect B (GIP) (Venturia inaequalis; dose 5 mg/l): 10.3%
- Effect A, Effect B (GIP) (Venturia inaequalis; dose 10 mg/l): 12.7%
- Effect A, Effect B (GIP) (Venturia inaequalis; dose 50 mg/l): 15.2% and 12.7%
- Effect A, Effect B (GIP) (Venturia inaequalis; dose 100 mg/l): 18.3% and 18.0%
- Effect A, Effect B (GIP) (Botrytis cinerea; dose 0.1 mg/l): 1.7%
- Effect A, Effect B (GIP) (Botrytis cinerea; dose 1 mg/l): 4.3%
- Effect A, Effect B (GIP) (Botrytis cinerea; dose 5 mg/l): 10.6%
- Effect A, Effect B (GIP) (Botrytis cinerea; dose 50 mg/l): 49.4%
- Effect A, Effect B (GIP) (Botrytis cinerea; dose 100 mg/l): 60.2%
- Effect A, Effect B (GIP) (Sclerotinia minor; dose 0.1 mg/l): 3.7%
- Effect A, Effect B (GIP) (Sclerotinia minor; dose 1 mg/l): 10.2%
- Effect A, Effect B (GIP) (Sclerotinia minor; dose 5 mg/l): 17.8%
- Effect A, Effect B (GIP) (Sclerotinia minor; dose 10 mg/l): 23.4%

SMILES: CCC(C)(NC(=O)c1cc(Cl)c(C)c(Cl)c1)C(=O)CCl (centres unmarked) [Zoxamide]
- Effect A, Effect B (GIP) (Venturia inaequalis; dose 1 mg/l): 78.0%
- Effect A, Effect B (GIP) (Venturia inaequalis; dose 5 mg/l): 78.8%
- Effect A, Effect B (GIP) (Venturia inaequalis; dose 10 mg/l): 80.0%
- Effect A, Effect B (GIP) (Venturia inaequalis; dose 50 mg/l): 80.1%
- Effect A, Effect B (GIP) (Venturia inaequalis; dose 100 mg/l): 84.5% and 84.0%
- Effect A, Effect B (GIP) (Botrytis cinerea; dose 1 mg/l): 5.6%
- Effect A, Effect B (GIP) (Botrytis cinerea; dose 10 mg/l): 31.2%
- Effect A, Effect B (GIP) (Botrytis cinerea; dose 50 mg/l): 47.3%
- Effect A, Effect B (GIP) (Botrytis cinerea; dose 100 mg/l): 56.9%
- Effect A, Effect B (GIP) (Sclerotinia minor; dose 0.1 mg/l): 2.5%
- Effect A, Effect B (GIP) (Sclerotinia minor; dose 1 mg/l): 29.1%
- Effect A, Effect B (GIP) (Sclerotinia minor; dose 10 mg/l): 37.6%
- Effect A, Effect B (GIP) (Sclerotinia minor; dose 50 mg/l): 58.2%
- Effect A, Effect B (GIP) (Sclerotinia minor; dose 100 mg/l): 70.3%
